Where no end group is shown, it is not given here. The star is where a group is joined. Carboxymethyl = O=C(O)C*
Key:
[1] = Solubility of peptide DNA condensates: particle size as a function of DNA concentration; assay type: physicochemical; settings: when increasing DNA concentration from 50 to 500 μg/ml
[2] = QELS particle size and zeta potential of PEG-peptide DNA condensates and co-condensates, Example 1; assay type: physicochemical; settings: charge ratio of 1.8:1 or higher; 50 μg/ml DNA in Hepes
Method: The particle size of peptide DNA condensates were analyzed at a DNA concentration of 50 μg/ml in Hepes by quasielastic light scattering (QELS). The particle surface change was determined by zeta potential analysis using a Brookhaven ZetaPlus™ (Brookhaven Instruments).
DNA co-condensates were prepared by add-mixing AlkCWK18 and PEG-VS-CWK18 in ratios ranging from 0 to 100 mol %, and condensing DNA at a charge ratio of 2.3:1 as described above. To establish the mol ratio of peptides bound to DNA, condensates were dialyzed in a fixed volume (0.5 ml) dialyzer for 75 h against water using a 100,000 MWCO membrane. Peptide DNA condensates in the retentate (0.5 ml) were dissociated by adding 50 μl of 5 M sodium chloride in 0.1% TFA. AlkCWK18 and PEG-VS-CWK18 were quantified by injecting 1 nmol of peptide (100 μl) onto analytical RP-HPLC eluted with 0.1% TFA and a gradient of acetonitrile (5 to 65% over 30 min) while detecting tryptophan by fluorescence (λex 280 nm, λem 350 nm). The peak integration areas were used to quantify AlkCWK18 and PEG-VS-CWK18 with reference to standard curves developed for each peptide.

plasmid DNA = assay: Fluorescent dye (thiazole orange) displacement assay of peptide binding to DNA, Example 1; settings: corresponding to a charge ratio of 1.8:1
Method: Peptide DNA condensates were formed by adding 75 μg of DNA (pCMVL in 750 μl of 5 mM Hepes pH 7.4) to varying amounts of peptide (7.5 to 90 nmol in 750 μl of Hepes) while vortexing, followed by equilibration at RT for 1 h. Peptide binding to DNA was monitored by a fluorescent dye displacement assay (Wadhwa et al. 1997). A 1 μg aliquot of the peptide DNA condensate was diluted to 1 ml in Hepes containing 0.1 μM thiazole orange. The fluorescence of the intercalated dye was measured on an LS50B fluorimeter (Perkin Elmer, UK) in a microcuvette by exciting at 500 nm while monitoring emission at 530 nm.

COS 7 cells [3] = assay: Luciferase reporter gene expression in COS 7 cells, Example 5; assay type: cell-based
COS 7 cells [4] = assay: Nuclear targeted β-galactosidase (X-gal) count of transfected COS 7 cells; assay type: cell-based; settings: COS 7, 48 h, NTβGal plasmid
Method: The number of cells transfected in vitro was examined using a plasmid encoding nuclear targeted β-galactosidase followed by X-gal (5-bromo-4-chloro-3-indolyl-β-galactopyranoside) staining. HepG2 and COS 7 cells were transfected for 5 h as described above with either AlkCWK18 DNA, peptide II DNA condensates, or plasmid DNA and then grown in fresh media for an additional 43 h. After removing media, cells were fixed for 5 min in phosphate-buffered saline (PBS, pH 7.3) containing 1.25 vol/vol % glutaraldehyde and then stained by incubation with 0.05 wt/v % X-gal, 1 mM magnesium chloride, 10 mM potassium ferricyanide, and 10 mM potassium ferrocyanide in PBS. After 4 h at 37° C., the X-gal solution was removed and the nuclear stained blue cells were counted with a light microscope under ten power magnification by averaging the number of transfectants from nine fields. Values were analyzed for significance by one-way analysis of variance.

HepG2 cells = assay: Luciferase reporter gene expression in HepG2 cells, Example 5; assay type: cell-based
Method: HepG2 cells (1.5×10^5) were plated on 6×35 mm wells and grown to 40-70% confluency in MEM supplemented with 10% FBS, penicillin and streptomycin (10,000 U/ml), sodium pyruvate (100 mM), and L-glutamine (200 mM). Transfections were performed in MEM (2 ml per 35 mm well) with 2% FBS and 80 μM chloroquine. Peptide DNA condensates (10 μg of DNA in 0.2 ml HBM) were added dropwise to triplicate wells. After a 5 h incubation at 37° C., the media was replaced with MEM supplemented with 10% FBS. After 24 h, cells were washed twice with ice-cold phosphate buffered saline (calcium and magnesium free) and then treated with 0.5 ml of ice-cold lysis buffer (25 mM Tris chloride pH 7.8, 1 mM EDTA, 8 mM magnesium chloride, 1% Triton X-100, 1 mM DTT) for 10 min. The cell lysate was scraped, transferred to 1.5 ml microcentrifuge tubes, and centrifuged for 7 min at 13,000 g at 4° C. to pellet debris.
Lysis buffer (300 μl), sodium-ATP (4 μl of a 180 mM solution, pH 7, 4° C.) and cell lysate (100 μl, 4° C.) were combined in a test tube, briefly mixed and immediately placed in the luminometer. Luciferase relative light units (RLU) were recorded on a Lumat™ LB 9501 (Berthold systems, Germany) with 10 sec integration after automatic injection of 100 μl of 0.5 mM D-luciferin (prepared fresh in lysis buffer without DTT). The RLU were converted in fmol using a standard curve generated by adding a known amount of luciferase (0.01 to 100 fmols with specific activity of 2.5 nU/fmol) to 35 mm wells containing 40-70% confluent HepG2 cells. The cells were processed as described above resulting in a standard curve with an average slope of 7.8×10^6 RLU per fmol of enzyme. Protein concentrations were measured by Bradford assay using bovine serum albumin as a standard (Bradford, 1976). The amount of luciferase recovered in each sample was normalized to milligrams of protein and reported as the mean and standard deviation obtained from triplicate transfections.
LipofectAce™ (Gibco BRL, 1:2.5 w/w dimethyl diotadecylammonium bromide and dioleoyl phosphatidylethanolamine) was used to mediate gene transfection according to the manufacturer's instructions. The ratio of DNA to LepofectAce™ was optimized for HepG2 cells. An optimal DNA/LipofectAce™ ratio was achieved by dissolving 10 μg of DNA in 100 μl serum free media (SFM) followed by adding 60 μl of LipofectAce™ prepared in 140 μl of SFM. The LipfectAce™ DNA complex was then diluted with 1.7 ml of SFM and used to transfect HepG2 cells for 5 h followed by replacing the transfecting media with media supplemented with 10% FBS. The cells were incubated for a total of 24 h, harvested and analyzed for luciferase as described above.

Substance | particle size of DNA condensates [1] [nm] | mean diameter of DNA condensates [2] [nm] | peptide:DNA stoichiometry at the asymptote of the dye displacement titration curve (relative DNA binding affinity) (plasmid DNA) | increase in luciferase gene expression relative to AlkCWK18 (COS 7 cells [3]) [fold] | more cells positively stained vs. AlkCWK18 (COS 7 cells [4]) [fold] | chloroquine enhancement of gene expression relative to that of AlkCWK18 DNA condensates (HepG2 cells) | increase in gene expression over polylysine1007 or LipofectAce (HepG2 cells; HepG2) [fold] | increase in luciferase gene expression relative to AlkCWK18 DNA condensates (HepG2 cells; HepG2, 80 μM chloroquine, 24 h) [fold]
Alk-S-Cys-Trp-Lys18 (C(Carboxymethyl)WKKKKKKKKKKKKKKKKKK) [AlkCWK18] | 60 to 400 | 60 | 0.3 nmol per μg of DNA | – | – | – | – | –
Cys-Trp-Lys17-Cys (CWKKKKKKKKKKKKKKKKKC) [Peptide II] | – | – | – | 10 | 4 | approximately 5 fold | 5 | 60

— US6770740B1, “Crosslinked DNA condesate compositions and gene delivery methods” (The Regents of the University of Michigan, priority 1999, dated 2004)
